Results on 13 molecules are retold here after publication PMC6273599, “Sesquiterpenoids and Diterpenoids from the Wood of Cunninghamia konishii and Their Inhibitory Activities against NO Production” (Molecules, 2016).

Structures are written as SMILES. Values after ≈ are worked out from the molar mass of the structure shown.

The first series relates to LPS-stimulated RAW 264.7 cells. The experiment in a line: Inhibition of LPS-induced nitric oxide production (Griess nitrite measurement). Format: cell-based, murine. Particulars: LPS (100 ng/mL)-stimulated RAW 264.7 cells, 24 h, Griess reaction; mean ± SD of three replicates. From the text:
(§1) Nitric oxide (NO) is derived from the oxidation of L-arginine by NO synthase (NOS) and is recognized as a mediator and regulator in biological actions, especially in inflammatory responses. In inflammation and carcinogenesis conditions, there is an increased production of NO by inducible NO synthase (iNOS). Thus, inhibitors of NO might be of therapeutic importance in preventing pathological conditions catalyzed by inflammation. Macrophages contain various chemical mediators that may be responsible for several inflammatory stages and have been expected to be an origin of inflammation. iNOS mainly exists in macrophages and can be induced by pro-inflammatory agents lipopolysaccharides (LPS). […] In this study, the inhibitory activity toward NO production of four sesquiterpenoids (1, 4, 5, and 6) and eight diterpenoids (8–15) was evaluated by measurement of nitrite/nitrate in LPS-stimulated RAW 264.7 cells. To search for the appropriate concentrations for the above assay, these 12 compounds were first tested their cytotoxic activity against the RAW 264.7 cells, and no significant cytotoxic activities were observed under all tested concentrations (Table 3).
(§2) A murine macrophage cell line RAW264.7 (BCRC No. 60001) was obtained from the Bioresources Collection and Research Center (BCRC) of the Food Industry Research and Development Institute (Hsinchu, Taiwan). Cells were maintained in Dulbecco’s Modified Eagle Medium (DMEM, Sigma, St. Louis, MO, USA) supplemented with 10% fetal bovine serum (FBS, Sigma). Cells were cultured in a humidified atmosphere with 5% CO2 at 37 °C and subcultured every three days at a dilution of 1:5 using 0.05% trypsin-0.02% EDTA in Ca^2+-, Mg^2+-free phosphate-buffered saline (DPBS).
The anti-inflammatory activity of compounds was evaluated by using a nitric oxide (NO) inhibitory activity assay. As a stable NO metabolite, production of NO was indirectly determined by Griess reaction to measure the concentration of nitrite in the culture medium. The cells were incubated with test compounds (0, 2.5, 5, 10, 20 and 40 μg/mL) in the presence of LPS (100 ng/mL) at 37 °C for 24 h. Then, cells were dispensed into 96-well plates, and 100 μL of each supernatant was reacted with an equal volume of Griess reagent (1% sulfanilamide, 0.1% naphthyl ethylenediamine dihydrochloride and 5% phosphoric acid) and incubated at room temperature for 10 min. Absorbance was then measured at 540 nm using a Micro-Reader (Molecular Devices Orleans Drive, Sunnyvale, CA, USA). A standard curve was generated, using freshly prepared 0–100 μM […] dissolved in assay buffer, to quantitate unknown nitrite in samples.
(§3) The data is expressed as means ± standard errors (SE). The IC50 values were calculated from the dose curves using a non-linear regression algorithm (SigmaPlot 8.0; SPSS Inc., Chicago, IL, USA, 2002). Statistical evaluation was carried out by one-way analysis of variance (ANOVA followed by Scheffe’s multiple range tests).
On to `CC(=O)OC(C)(C)C1CCC2(C)CCCC(C)(O)C2C1` (stereo not drawn) [Compound 5, 11-acetoxyeudesman-4α-ol], for which the “Inhibition of NO Production IC50” value was more than 20 mg/L.

Staying with this series, now noted: Mus musculus, RAW264.7; LPS (100 ng/mL)-stimulated RAW 264.7 cells, 24 h, Griess reaction; mean ± SD of three replicates; read-out: Inhibition of NO Production IC50.
By IC50 is commonly meant the concentration that inhibits the measured activity by half. In the case of `CC1CCC2(C)CC3CCC12C(O)C3(C)C` (stereo not drawn) [Compound 1, 2α-hydroxy-3,3,6α,9β-tetramethyltricyclo[4,3,2^1,4]undecane], the concentration for half-maximal inhibition (IC50) was more than 20 mg/L.

Turning to `C=CC(C)=CCC1C(=C)CCC2C(C)(CO)CCCC12C` (centres unmarked) [Compound 9, elliotinol], the IC50 is more than 20 mg/L.

Consider `C=C1CCC2C(C)(CO)CCCC2(C)C1C=CC(C)=O` (centres unmarked) [Compound 12], for which the IC50 is more than 20 mg/L.

With `COc1ccc2c(c1)c(CC(=O)O)c(C)n2C(=O)c1ccc(Cl)cc1` [indomethacin, reference compound], the IC50 worked out at 65.4 ± 1.8 mg/L (≈ 183 µM).

`Cc1ccc(C(C)C)c2c1[C@H](O)[C@@H](O)[C@@H](C)C2` [Compound 6, 2α,3β-dihydroxy-4β-methyl-6,8,10-cadinatriene]: the IC50 was more than 20 mg/L.

On to `C=CC1(C)OC2(C)CCC3C(C)(CO)CCCC3(C)C2CC1O` (centres unmarked) [Compound 13], for which the IC50 was more than 20 mg/L.

In the case of `CC(=O)OC(C)(C)C1CCC2(C)CCCC(C)(O)C2C1` (stereo not drawn) [Compound 4, 11-acetoxyeudesman-4β-ol], the 50% inhibitory concentration (IC50) was more than 20 mg/L.

For the molecule `C=CC(=C)CCC1C(C)(O)CCC2C(C)(C=O)CCCC12C` (centres unmarked) [Compound 11], the IC50 is more than 20 mg/L.

For `C=C1CCC2C(C)(C(=O)O)CCCC2(C)C1CC1OCC=C1C` (centres unmarked) [Compound 14], the IC50 was more than 20 mg/L.

Consider `C=CC(C)(O)CCC1C(C)(O)CCC2C(C)(C)CCCC21C` (centres unmarked) [Compound 15], for which the IC50 was 13.1 ± 0.55 mg/L (≈ 42.4 µM).

For `CC(=O)C=CC1C(C)(O)CCC2C(C)(C)CCCC21C` (stereo not drawn) [Compound 10, 8α-hydroxy-15,16-bisnorlabda-11-en-13-one], the IC50 came out at 11.4 ± 0.62 mg/L (≈ 41.1 µM).

On to `C=C[C@]1(C)C=C2CC[C@@H]3[C@](C)(CCC[C@@]3(C)C(=O)O)[C@H]2CC1` [Compound 8, sandaracopimaric acid], for which the half-inhibitory concentration (IC50) was more than 20 mg/L.

Tested on in another series: not listed separately
The experiment in a line: Cell viability / cytotoxicity (MTT). Format: cell-based, murine. Particulars: mouse, RAW 264.7 macrophage cells, RAW 264.7 cells, 24 h with test compound in presence of 100 ng/mL LPS, mean ± SD of three replicates.
Text: as §1, §2
(§4) Cells (2 × 10^5) were cultured in 96-well plate containing DMEM supplemented with 10% FBS. After 24 h of cells incubation, cells were cultured with test compounds in the presence of 100 ng/mL LPS (lipopolysaccharide) for 24 h. Untreated cells served as the control. After that, the cells were washed twice with DPBS and 100 μL of 0.5 mg/mL MTT was added to each well for further 2 h incubation at 37 °C. The medium was then discarded, and the colored crystals of produced formazan were dissolved in 100 μL dimethyl sulfoxide (DMSO). After 30 min incubation, the absorbance was measured at 570 nm on a microplate reader (Molecular Devices).
as §3
Regarding `CC1CCC2(C)CC3CCC12C(O)C3(C)C` (stereo not drawn) [Compound 1, 2α-hydroxy-3,3,6α,9β-tetramethyltricyclo[4,3,2^1,4]undecane], the half-maximal inhibitory concentration (IC50) at 24 h was more than 20 mg/L.

For the molecule `C=CC(C)=CCC1C(=C)CCC2C(C)(CO)CCCC12C` (centres unmarked) [Compound 9, elliotinol], the IC50 at 24 h is more than 20 mg/L.

With `C=C1CCC2C(C)(CO)CCCC2(C)C1C=CC(C)=O` (centres unmarked) [Compound 12], the IC50 at 24 h was more than 20 mg/L.

Regarding `COc1ccc2c(c1)c(CC(=O)O)c(C)n2C(=O)c1ccc(Cl)cc1` [indomethacin, reference compound], the IC50 at 24 h is more than 100 mg/L.

As for `Cc1ccc(C(C)C)c2c1[C@H](O)[C@@H](O)[C@@H](C)C2` [Compound 6, 2α,3β-dihydroxy-4β-methyl-6,8,10-cadinatriene], the IC50 at 24 h is more than 20 mg/L.

With `C=CC1(C)OC2(C)CCC3C(C)(CO)CCCC3(C)C2CC1O` (centres unmarked) [Compound 13], the IC50 at 24 h was more than 20 mg/L.

On to `CC(=O)OC(C)(C)C1CCC2(C)CCCC(C)(O)C2C1` (stereo not drawn) [Compound 4, 11-acetoxyeudesman-4β-ol], for which the IC50 at 24 h was more than 20 mg/L.

With `C=CC(=C)CCC1C(C)(O)CCC2C(C)(C=O)CCCC12C` (centres unmarked) [Compound 11], the IC50 at 24 h was more than 20 mg/L.

For `C=C1CCC2C(C)(C(=O)O)CCCC2(C)C1CC1OCC=C1C` (centres unmarked) [Compound 14], the IC50 at 24 h was more than 20 mg/L.

As to `C=CC(C)(O)CCC1C(C)(O)CCC2C(C)(C)CCCC21C` (centres unmarked) [Compound 15], the IC50 at 24 h was more than 20 mg/L.

For the molecule `CC(=O)C=CC1C(C)(O)CCC2C(C)(C)CCCC21C` (stereo not drawn) [Compound 10, 8α-hydroxy-15,16-bisnorlabda-11-en-13-one], the IC50 at 24 h was more than 20 mg/L.

With `C=C[C@]1(C)C=C2CC[C@@H]3[C@](C)(CCC[C@@]3(C)C(=O)O)[C@H]2CC1` [Compound 8, sandaracopimaric acid], the IC50 at 24 h was more than 20 mg/L.

The subject of another series is RAW 264.7 cells. Briefly: Cell viability / cytotoxicity (MTT). Format: cell-based, murine. To be noted: 24 h with test compound in presence of 100 ng/mL LPS, mean ± SD of three replicates.
Text: as §1, §2, §4, §3
As for `CC(=O)OC(C)(C)C1CCC2(C)CCCC(C)(O)C2C1` (stereo not drawn) [Compound 5, 11-acetoxyeudesman-4α-ol], the “Cytotoxicity IC50” value is more than 20 mg/L.
